Legend:
USP39_FL = target: T1, USP39_FL (Homo sapiens, UniProt Q53GS9); assay: Thermal shift assay (TSA) with full-length USP39; type: binding
T1 construct: made in house
T1 sequence (Q53GS9 1-565): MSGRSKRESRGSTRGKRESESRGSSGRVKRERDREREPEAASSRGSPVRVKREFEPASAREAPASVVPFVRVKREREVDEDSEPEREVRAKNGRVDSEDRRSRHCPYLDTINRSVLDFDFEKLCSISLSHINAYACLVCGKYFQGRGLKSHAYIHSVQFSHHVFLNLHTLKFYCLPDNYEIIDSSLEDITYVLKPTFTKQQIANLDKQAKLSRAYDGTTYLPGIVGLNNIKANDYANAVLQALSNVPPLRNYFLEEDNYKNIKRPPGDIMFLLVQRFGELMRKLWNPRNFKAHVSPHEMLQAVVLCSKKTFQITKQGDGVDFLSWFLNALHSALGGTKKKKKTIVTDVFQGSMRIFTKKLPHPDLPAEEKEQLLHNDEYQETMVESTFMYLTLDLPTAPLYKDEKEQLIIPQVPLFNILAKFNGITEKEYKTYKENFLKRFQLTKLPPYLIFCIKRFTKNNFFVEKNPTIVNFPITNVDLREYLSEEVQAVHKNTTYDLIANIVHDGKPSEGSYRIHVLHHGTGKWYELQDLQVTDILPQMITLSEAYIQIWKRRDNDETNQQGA
Text: To identify potential USP39 binders, we purified full‐length USP39 protein (USP39_FL, Figure SI1B) and conducted chemical screening using two complementary strategies. First, an in‐house bioactive collection of approximately 200 small molecules, previously assembled from our studies on cellular reprogramming, was screened using thermal shift assay (TSA, Figure 1a).^[ [2], [23], [24], [25], [26] ^] […] In parallel, a DNA‐encoded library (DEL) screening comprising roughly 600 million unique small molecules was performed. Each DEL compound carries a covalently attached DNA barcode that enables identification after target binding. For this screening, purified USP39_FL protein was immobilized on magnetic beads and incubated with the library; unbound molecules were washed away, and bound DNA‐tagged compounds were eluted. […]
Figure 1 Chemical screening identified thiazole‐containing compounds as USP39 binders. a) AlphaFold3‑predicted structure of full‐length USP39 (USP39_FL) showing three domains: an N‑terminal RS‑like domain (grey), a central zinc‑finger (ZNF) domain (cyan), and a C‑terminal USP domain (gold). […] The ΔT values are therefore given under an empty label, with the protein construct written in front. / Panels b and d: the print is small, so the digits in 55.0, 57.5, -2.5, -2.0 and -1.5 are best readings. […]

USP39-OFP = target: T2, USP39-OFP (Homo sapiens, UniProt P40337+Q53GS9); assay: Fluorescence degradation assay in HEK293T cells co-expressing USP39-OFP and VHL_WT-EGFP; type: cell-based; conditions: VHL WT (VHL_WT-EGFP co-expressed)
T2 construct: expressed in transfected cells
Experimental: (§1) Figure 4 Effective and selective degradation of USP39 in cells by USP39‐PROTACs. a) Optimization of cellular degradation assay in HeLa cells transiently overexpressing USP39‑OFP (HeLa‐USP39‐OFP). […] GAPDH was used as a loading control. g) Proteasome dependence of USP39 degradation. HeLa‐WT cells were co‐treated with MG132 (0.25 µM) or DMSO control and USP39_PROTAC_V1 for 24 h ST. h) Representative immunofluorescence images of HeLa‐USP39_OFP cells treated with DMSO (NT), USP39_PROTAC_V1 (10 nM, 24 h), or USP39_PROTAC_V1 + MLN4924 (1 µM), stained for USP39 (red) and nuclei (blue). i) Quantification of USP39 degradation by fluorescence microscopy, showing DC50 values of 13 nM without MLN4924 (orange) and 204 nM with MLN4924 (blue) (MLN4924 = 5 uM). j) VHL‐dependence of PROTAC‐induced degradation. Schematic of PROTAC recruitment to VHL via hydroxyl‐proline interactions (His115, Ser111). Western blot comparing USP39 levels in VHL WT and VHL KO HeLa cells treated with USP39_PROTAC_V1. k) Fluorescence assay in HEK293T cells co‐expressing USP39‑OFP and either VHL_WT‑EGFP or VHL_m (Δ91–121). […] Comparison of untreated (NT) and USP39_PROTAC_V1–treated (10 nM, 24 h) samples. Percent spliced/unspliced (S/U) ratios are shown, reflecting USP39‐deficiency–associated splicing defects. Data represent at least four independent biological replicates. […]

[1] = system: 5′ splice site usage in exon 1 of ZNF414 and CRK; assay: RT-PCR analysis of alternative splicing in ZNF414 and CRK transcripts; type: cell-based, human; conditions: 10 nM, 24 h
Experimental: as §1

T2 sequence (P40337 whole entry, one chain of several): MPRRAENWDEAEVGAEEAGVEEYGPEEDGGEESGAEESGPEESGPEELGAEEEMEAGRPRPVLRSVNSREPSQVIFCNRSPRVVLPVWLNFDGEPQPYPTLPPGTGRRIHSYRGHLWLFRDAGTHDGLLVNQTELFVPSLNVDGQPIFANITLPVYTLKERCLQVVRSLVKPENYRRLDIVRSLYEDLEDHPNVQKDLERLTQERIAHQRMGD
T2 sequence (Q15370 whole entry partner, one chain of several): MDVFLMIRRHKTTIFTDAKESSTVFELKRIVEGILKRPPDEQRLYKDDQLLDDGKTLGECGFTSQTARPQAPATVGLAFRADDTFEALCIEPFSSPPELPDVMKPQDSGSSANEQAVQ
T2 sequence (Q15369 whole entry partner, one chain of several): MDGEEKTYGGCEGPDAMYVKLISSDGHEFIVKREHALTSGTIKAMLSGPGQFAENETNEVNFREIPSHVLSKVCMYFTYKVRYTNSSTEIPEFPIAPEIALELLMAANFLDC

## Cc1ncsc1-c1ccc(CNC(=O)C2CC(O)CN2C(=O)C(NC(=O)CCOCCOCCOCCNC(=O)c2csc(Nc3ccc(Cl)cc3)n2)C(C)(C)C)cc1 (stereo not drawn) [USP39_PROTAC_V1]
USP39_FL
  ∆T (T max_Compound − T max_USP39), USP39_FL: comparable to that induced by USP39_B1
USP39-OFP
  DC50: 1 nM
[1]
  Cryptic 5′ splice site usage in ZNF414 and CRK: reproduced these cryptic splicing events
